From PMC5451150 (Journal of Medicinal Chemistry, 2016)

Legend:
[1] = Intrinsic clearance in mouse liver microsomes; format: in vitro ADME
[2] = Plasma protein binding, mouse; format: in vitro ADME
[3] = Plasma protein binding, rat; format: in vitro ADME
[4] = Plasma protein binding, dog; format: in vitro ADME
[5] = Plasma protein binding, human; format: in vitro ADME
[6] = Rat pharmacokinetics (iv and po); format: in vivo; settings: po 25 mg/kg, male Sprague–Dawley rats
[7] = Dog pharmacokinetics (iv and po); format: in vivo; settings: po 5 mg/kg, male beagle dogs
[8] = molecular target: T1, EZH2 C663S (Homo sapiens, UniProt O75530+Q15910, C663S); assay: EZH2 C663S incorporated into reconstituted PRC2, potency; format: biochemical; settings: single substitution cysteine to serine at position 663, reconstituted PRC2
T1 construct: made in house

[9] = system: cytochrome P450 enzymes 1A2, 2C9, 2C8, 2D6, and 3A4; assay: Time-dependent inhibition (TDI) of cytochrome P450 enzymes; format: in vitro ADME
[10] = system: panel of fifty-four physiologically relevant receptors, transporters, and ion channels; assay: Secondary pharmacology panel; settings: at 10 μM; fifty-four targets
[11] = molecular target: DNMT1 (Homo sapiens, UniProt P26358); assay: Methyltransferase selectivity panel: DNMT1; format: biochemical; settings: substrate Poly dl-dC; top concentration 10 µM
[12] = molecular target: DNMT3a (Homo sapiens, UniProt Q9Y6K1); assay: Methyltransferase selectivity panel: DNMT3a; format: biochemical; settings: substrate Lambda DNA; top concentration 10 µM
[13] = molecular target: DNMT3b (Homo sapiens, UniProt Q9UBC3); assay: Methyltransferase selectivity panel: DNMT3b; format: biochemical; settings: substrate Lambda DNA; top concentration 10 µM
[14] = molecular target: DOT1L (Homo sapiens, UniProt Q8TEK3); assay: Methyltransferase selectivity panel: DOT1L; format: biochemical; settings: substrate Nucleosomes; top concentration 10 µM
[15] = molecular target: G9a (Homo sapiens, UniProt Q96KQ7); assay: Methyltransferase selectivity panel: G9a; format: biochemical; settings: substrate Histone H3 (1-21); top concentration 10 µM
[16] = molecular target: GLP (Homo sapiens, UniProt Q9H9B1); assay: Methyltransferase selectivity panel: GLP; format: biochemical; settings: substrate Histone H3 (1-21); top concentration 10 µM
[17] = molecular target: MLL1 (Homo sapiens, UniProt Q03164); assay: Methyltransferase selectivity panel: MLL1; format: biochemical; settings: substrate Nucleosomes; top concentration 10 µM
[18] = molecular target: MLL2 (Homo sapiens, UniProt O14686); assay: Methyltransferase selectivity panel: MLL2; format: biochemical; settings: substrate Core Histone; top concentration 10 µM
[19] = molecular target: MLL3 (Homo sapiens, UniProt Q8NEZ4); assay: Methyltransferase selectivity panel: MLL3; format: biochemical; settings: substrate Core Histone; top concentration 10 µM
[20] = molecular target: MLL4; assay: Methyltransferase selectivity panel: MLL4; format: biochemical; settings: substrate Core Histone; top concentration 10 µM
[21] = molecular target: NSD1 (Homo sapiens, UniProt Q96L73); assay: Methyltransferase selectivity panel: NSD1; format: biochemical; settings: substrate Nucleosomes; top concentration 10 µM
[22] = molecular target: NSD2 (Homo sapiens, UniProt O96028); assay: Methyltransferase selectivity panel: NSD2; format: biochemical; settings: substrate Nucleosomes; top concentration 10 µM
[23] = molecular target: NSD2 (E1099K) (Homo sapiens, UniProt O96028, E1099K); assay: Methyltransferase selectivity panel: NSD2 (E1099K); format: biochemical; settings: substrate Nucleosomes; top concentration 10 µM
[24] = molecular target: PRDM9 (Homo sapiens, UniProt Q9NQV7); assay: Methyltransferase selectivity panel: PRDM9; format: biochemical; settings: substrate Histone H3; top concentration 10 µM
[25] = molecular target: PRMT1 (Homo sapiens, UniProt Q99873); assay: Methyltransferase selectivity panel: PRMT1; format: biochemical; settings: substrate Histone H4; top concentration 10 µM
[26] = molecular target: PRMT3 (Homo sapiens, UniProt O60678); assay: Methyltransferase selectivity panel: PRMT3; format: biochemical; settings: substrate Histone H4; top concentration 10 µM
[27] = molecular target: PRMT4 (Homo sapiens, UniProt Q86X55); assay: Methyltransferase selectivity panel: PRMT4; format: biochemical; settings: substrate Histone H3; top concentration 10 µM
[28] = molecular target: PRMT5 (Homo sapiens, UniProt O14744); assay: Methyltransferase selectivity panel: PRMT5; format: biochemical; settings: substrate Histone 2A; top concentration 10 µM
[29] = molecular target: PRMT8 (Homo sapiens, UniProt Q9NR22); assay: Methyltransferase selectivity panel: PRMT8; format: biochemical; settings: substrate Histone H4; top concentration 10 µM
[30] = molecular target: SET1B (Homo sapiens, UniProt Q9UPS6); assay: Methyltransferase selectivity panel: SET1B; format: biochemical; settings: substrate Core Histone; top concentration 10 µM
[31] = molecular target: SET8 (Homo sapiens, UniProt Q9NQR1); assay: Methyltransferase selectivity panel: SET8; format: biochemical; settings: substrate Nucleosomes; top concentration 10 µM
[32] = molecular target: SETD2 (Homo sapiens, UniProt Q9BYW2); assay: Methyltransferase selectivity panel: SETD2; format: biochemical; settings: substrate Histone H4; top concentration 10 µM
[33] = molecular target: SMYD2 (Homo sapiens, UniProt Q9NRG4); assay: Methyltransferase selectivity panel: SMYD2; format: biochemical; settings: substrate Histone H4; top concentration 10 µM
[34] = molecular target: SUV39H1 (Homo sapiens, UniProt O43463); assay: Methyltransferase selectivity panel: SUV39H1; format: biochemical; settings: substrate Histone H3; top concentration 10 µM
[35] = molecular target: SUV39H2 (Homo sapiens, UniProt Q9H5I1); assay: Methyltransferase selectivity panel: SUV39H2; format: biochemical; settings: substrate Histone H3; top concentration 10 µM
[36] = molecular target: SUV420H1TV2 (Homo sapiens, UniProt Q4FZB7); assay: Methyltransferase selectivity panel: SUV420H1TV2; format: biochemical; settings: substrate Nucleosomes; top concentration 10 µM
[37] = molecular target: PRMT6 (Homo sapiens, UniProt Q96LA8); settings: substrate Histone H3; top concentration 10 µM
[38] = system: KARPAS-422 B-cell lymphoma xenograft; assay: KARPAS-422 B-cell lymphoma xenograft efficacy and PK/PD in CB-17 SCID mice; settings: for antitumor efficacy (in words): 160 mg/kg BID

SETD2, sequence (Q9BYW2 whole entry): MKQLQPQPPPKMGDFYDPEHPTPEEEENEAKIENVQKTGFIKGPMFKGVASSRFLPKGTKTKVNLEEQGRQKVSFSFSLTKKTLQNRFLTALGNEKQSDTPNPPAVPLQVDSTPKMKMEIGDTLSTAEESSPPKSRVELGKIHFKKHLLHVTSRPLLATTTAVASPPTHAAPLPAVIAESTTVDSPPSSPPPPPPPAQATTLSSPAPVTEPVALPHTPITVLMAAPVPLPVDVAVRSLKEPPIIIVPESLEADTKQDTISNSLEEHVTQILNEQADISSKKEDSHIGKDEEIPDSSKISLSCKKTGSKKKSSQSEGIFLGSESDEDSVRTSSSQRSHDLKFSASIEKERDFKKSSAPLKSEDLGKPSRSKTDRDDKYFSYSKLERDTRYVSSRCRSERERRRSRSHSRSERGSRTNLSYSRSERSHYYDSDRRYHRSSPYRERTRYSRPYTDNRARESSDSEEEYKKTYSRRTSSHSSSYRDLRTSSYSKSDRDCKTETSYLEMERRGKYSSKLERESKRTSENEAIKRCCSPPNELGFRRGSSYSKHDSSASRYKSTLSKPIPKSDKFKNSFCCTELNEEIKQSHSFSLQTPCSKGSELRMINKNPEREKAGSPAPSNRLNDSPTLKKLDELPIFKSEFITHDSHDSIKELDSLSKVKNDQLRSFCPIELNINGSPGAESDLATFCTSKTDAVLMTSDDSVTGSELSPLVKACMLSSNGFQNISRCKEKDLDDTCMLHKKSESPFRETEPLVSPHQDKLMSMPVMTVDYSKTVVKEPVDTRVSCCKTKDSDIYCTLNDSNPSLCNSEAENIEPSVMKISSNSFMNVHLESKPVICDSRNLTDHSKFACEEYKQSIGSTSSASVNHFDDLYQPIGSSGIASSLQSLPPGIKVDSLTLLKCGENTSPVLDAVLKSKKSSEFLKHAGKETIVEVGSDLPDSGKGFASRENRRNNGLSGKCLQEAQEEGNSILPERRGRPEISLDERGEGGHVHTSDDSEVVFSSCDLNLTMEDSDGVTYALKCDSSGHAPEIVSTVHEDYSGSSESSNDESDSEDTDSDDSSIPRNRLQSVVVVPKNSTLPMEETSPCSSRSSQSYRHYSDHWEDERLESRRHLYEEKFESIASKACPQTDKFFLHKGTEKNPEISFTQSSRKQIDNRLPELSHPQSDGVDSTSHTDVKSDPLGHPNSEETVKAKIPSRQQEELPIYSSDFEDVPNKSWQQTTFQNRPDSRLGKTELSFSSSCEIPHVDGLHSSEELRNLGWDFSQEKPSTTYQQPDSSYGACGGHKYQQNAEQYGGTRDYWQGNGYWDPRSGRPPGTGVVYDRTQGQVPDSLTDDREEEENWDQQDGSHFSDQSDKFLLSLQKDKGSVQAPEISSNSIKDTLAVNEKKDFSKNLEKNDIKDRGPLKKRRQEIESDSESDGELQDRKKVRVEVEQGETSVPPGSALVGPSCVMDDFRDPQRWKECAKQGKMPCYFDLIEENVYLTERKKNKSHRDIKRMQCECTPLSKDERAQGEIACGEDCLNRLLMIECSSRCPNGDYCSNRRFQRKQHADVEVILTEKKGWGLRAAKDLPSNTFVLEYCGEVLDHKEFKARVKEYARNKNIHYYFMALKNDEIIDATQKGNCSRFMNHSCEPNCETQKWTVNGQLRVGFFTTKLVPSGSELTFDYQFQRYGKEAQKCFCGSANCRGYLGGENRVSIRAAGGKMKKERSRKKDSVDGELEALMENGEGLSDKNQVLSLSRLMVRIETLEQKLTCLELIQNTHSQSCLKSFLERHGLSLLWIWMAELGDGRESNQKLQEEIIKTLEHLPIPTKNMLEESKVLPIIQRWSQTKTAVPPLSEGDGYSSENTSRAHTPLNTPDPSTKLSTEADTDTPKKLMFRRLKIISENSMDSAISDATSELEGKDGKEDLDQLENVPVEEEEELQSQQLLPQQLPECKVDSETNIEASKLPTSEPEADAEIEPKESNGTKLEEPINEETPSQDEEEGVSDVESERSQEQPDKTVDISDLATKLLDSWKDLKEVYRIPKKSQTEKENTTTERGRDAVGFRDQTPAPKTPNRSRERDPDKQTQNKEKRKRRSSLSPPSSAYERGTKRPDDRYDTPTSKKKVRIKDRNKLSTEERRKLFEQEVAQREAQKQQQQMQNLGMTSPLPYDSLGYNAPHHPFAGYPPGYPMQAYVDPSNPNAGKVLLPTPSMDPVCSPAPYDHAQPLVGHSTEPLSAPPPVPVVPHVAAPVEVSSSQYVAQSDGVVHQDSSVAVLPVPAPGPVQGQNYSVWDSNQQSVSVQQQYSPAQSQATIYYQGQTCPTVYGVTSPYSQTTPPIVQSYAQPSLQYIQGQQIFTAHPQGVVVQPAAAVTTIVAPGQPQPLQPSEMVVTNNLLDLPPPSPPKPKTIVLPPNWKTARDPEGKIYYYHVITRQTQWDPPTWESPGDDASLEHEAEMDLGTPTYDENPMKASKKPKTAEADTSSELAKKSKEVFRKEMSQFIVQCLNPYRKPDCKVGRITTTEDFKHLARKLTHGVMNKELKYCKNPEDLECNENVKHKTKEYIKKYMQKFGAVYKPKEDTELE
PRMT4, sequence (Q86X55 whole entry): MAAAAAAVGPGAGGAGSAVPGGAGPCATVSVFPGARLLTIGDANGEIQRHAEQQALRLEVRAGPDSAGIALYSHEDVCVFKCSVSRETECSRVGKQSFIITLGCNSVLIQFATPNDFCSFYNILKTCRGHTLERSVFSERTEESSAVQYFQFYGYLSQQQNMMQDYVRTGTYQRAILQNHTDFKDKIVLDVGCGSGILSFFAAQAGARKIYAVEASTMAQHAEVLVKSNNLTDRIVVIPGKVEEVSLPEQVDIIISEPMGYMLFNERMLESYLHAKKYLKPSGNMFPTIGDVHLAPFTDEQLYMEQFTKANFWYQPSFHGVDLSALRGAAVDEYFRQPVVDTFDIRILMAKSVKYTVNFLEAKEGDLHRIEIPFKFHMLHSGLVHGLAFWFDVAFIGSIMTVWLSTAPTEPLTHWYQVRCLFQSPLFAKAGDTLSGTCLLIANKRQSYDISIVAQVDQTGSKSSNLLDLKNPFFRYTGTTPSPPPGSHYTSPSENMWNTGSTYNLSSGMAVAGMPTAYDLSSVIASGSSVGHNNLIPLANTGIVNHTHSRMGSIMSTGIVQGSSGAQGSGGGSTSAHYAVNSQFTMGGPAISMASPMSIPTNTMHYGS
DNMT3a, sequence (Q9Y6K1 whole entry, looked up, species assumed): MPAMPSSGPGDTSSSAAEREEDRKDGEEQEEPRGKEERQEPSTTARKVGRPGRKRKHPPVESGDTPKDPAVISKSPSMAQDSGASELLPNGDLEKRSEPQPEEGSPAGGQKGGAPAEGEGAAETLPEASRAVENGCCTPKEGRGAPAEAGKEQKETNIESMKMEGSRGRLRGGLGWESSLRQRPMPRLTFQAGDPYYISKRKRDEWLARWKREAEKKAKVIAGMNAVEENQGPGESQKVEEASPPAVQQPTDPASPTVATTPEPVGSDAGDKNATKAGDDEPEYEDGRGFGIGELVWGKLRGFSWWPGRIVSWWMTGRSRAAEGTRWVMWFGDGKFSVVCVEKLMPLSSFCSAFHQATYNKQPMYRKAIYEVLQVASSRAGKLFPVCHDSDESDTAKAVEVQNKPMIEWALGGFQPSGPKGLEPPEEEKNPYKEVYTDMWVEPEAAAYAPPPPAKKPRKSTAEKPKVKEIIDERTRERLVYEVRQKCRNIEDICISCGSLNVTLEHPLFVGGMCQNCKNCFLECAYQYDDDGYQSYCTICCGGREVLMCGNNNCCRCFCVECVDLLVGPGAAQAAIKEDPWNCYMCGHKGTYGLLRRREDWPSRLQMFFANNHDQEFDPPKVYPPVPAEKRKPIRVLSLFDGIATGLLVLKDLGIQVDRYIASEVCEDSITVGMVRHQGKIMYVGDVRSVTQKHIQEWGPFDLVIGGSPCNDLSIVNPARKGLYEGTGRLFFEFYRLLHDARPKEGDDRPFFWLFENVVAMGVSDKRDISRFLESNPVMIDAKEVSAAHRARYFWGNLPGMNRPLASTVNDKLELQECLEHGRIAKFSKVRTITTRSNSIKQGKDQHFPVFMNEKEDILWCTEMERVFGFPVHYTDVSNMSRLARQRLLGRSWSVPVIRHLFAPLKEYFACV
SMYD2, sequence (Q9NRG4 whole entry): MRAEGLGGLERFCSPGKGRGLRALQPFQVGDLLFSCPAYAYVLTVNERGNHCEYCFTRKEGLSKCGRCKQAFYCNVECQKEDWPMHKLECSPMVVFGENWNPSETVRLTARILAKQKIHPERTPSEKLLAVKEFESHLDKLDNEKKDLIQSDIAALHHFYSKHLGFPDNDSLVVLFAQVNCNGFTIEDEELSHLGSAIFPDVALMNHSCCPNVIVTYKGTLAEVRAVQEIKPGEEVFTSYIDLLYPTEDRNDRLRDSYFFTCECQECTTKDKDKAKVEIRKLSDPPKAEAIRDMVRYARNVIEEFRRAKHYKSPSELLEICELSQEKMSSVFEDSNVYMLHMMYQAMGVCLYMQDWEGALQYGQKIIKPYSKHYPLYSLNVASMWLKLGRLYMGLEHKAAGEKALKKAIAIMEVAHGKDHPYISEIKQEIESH
PRMT8, sequence (Q9NR22 whole entry): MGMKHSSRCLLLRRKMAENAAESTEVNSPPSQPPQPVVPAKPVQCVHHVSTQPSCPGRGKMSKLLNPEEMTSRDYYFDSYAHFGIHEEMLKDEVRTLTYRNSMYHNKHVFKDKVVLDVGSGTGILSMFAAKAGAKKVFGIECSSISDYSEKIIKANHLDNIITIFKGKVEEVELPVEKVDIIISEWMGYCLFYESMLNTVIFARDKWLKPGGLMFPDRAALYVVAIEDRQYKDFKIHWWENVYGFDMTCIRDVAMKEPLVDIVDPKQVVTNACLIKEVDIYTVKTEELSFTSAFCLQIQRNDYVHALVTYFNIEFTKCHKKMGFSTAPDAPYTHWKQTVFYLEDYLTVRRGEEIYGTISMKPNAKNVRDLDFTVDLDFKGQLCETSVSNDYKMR

COc1cc(C)[nH]c(=O)c1CNC(=O)c1c(C)n([C@H](C)C2CCN(CC(F)(F)F)CC2)c2ccccc12 [compound 13, (R)-N-((4-Methoxy-6-methyl-2-oxo-1,2-dihydropyridin-3-yl)methyl)-2-methyl-1-(1-(1-(2,2,2-trifluoroethyl)piperidin-4-yl)ethyl)-1H-indole-3-carboxamide]
Clint [1]: 159 μL/min/mg protein | microsomal CLint ([1]; mouse, liver microsomes): > 100 µL/min/mg | PPB [2]: 97.9 % bound | PPB [3]: 89.9 % bound | PPB ([4]; dog plasma): 90.3 % bound | fraction unbound ([4]; plasma, in vitro, dog, read-out: fu (fraction unbound to plasma protein)): 0.089 | PPB [5]: 92.8 % bound | Cmax unbound (value in brackets) [6]: 593 nM | Cmax unbound (value in brackets) [7]: 120 nM | potency in mutated EZH2 C663S (versus EZH2) [8]: decreased | time-dependent inhibition (TDI) of cytochrome P450 enzymes [9]: no time-dependent inhibition | inhibition of any target of the panel [10]: ≤ 50% | DNMT1 IC50 [11]: no inhibition or compound activity that could not be fit to an IC50 curve | DNMT3a IC50 [12]: no inhibition or compound activity that could not be fit to an IC50 curve | DNMT3b IC50 [13]: no inhibition or compound activity that could not be fit to an IC50 curve | DOT1L IC50 [14]: no inhibition or compound activity that could not be fit to an IC50 curve | G9a IC50 [15]: no inhibition or compound activity that could not be fit to an IC50 curve | GLP IC50 [16]: no inhibition or compound activity that could not be fit to an IC50 curve | MLL1 IC50 [17]: no inhibition or compound activity that could not be fit to an IC50 curve | MLL2 IC50 [18]: no inhibition or compound activity that could not be fit to an IC50 curve | MLL3 IC50 [19]: no inhibition or compound activity that could not be fit to an IC50 curve | MLL4 IC50 [20]: no inhibition or compound activity that could not be fit to an IC50 curve | NSD1 IC50 [21]: no inhibition or compound activity that could not be fit to an IC50 curve | NSD2 IC50 [22]: no inhibition or compound activity that could not be fit to an IC50 curve | NSD2 (E1099K) IC50 [23]: no inhibition or compound activity that could not be fit to an IC50 curve | PRDM9 IC50 [24]: no inhibition or compound activity that could not be fit to an IC50 curve | PRMT1 IC50 [25]: no inhibition or compound activity that could not be fit to an IC50 curve | PRMT3 IC50 [26]: no inhibition or compound activity that could not be fit to an IC50 curve | PRMT4 IC50 [27]: no inhibition or compound activity that could not be fit to an IC50 curve | PRMT5 IC50 [28]: no inhibition or compound activity that could not be fit to an IC50 curve | PRMT8 IC50 [29]: no inhibition or compound activity that could not be fit to an IC50 curve | SET1B IC50 [30]: no inhibition or compound activity that could not be fit to an IC50 curve | SET8 IC50 [31]: no inhibition or compound activity that could not be fit to an IC50 curve | SETD2 IC50 [32]: no inhibition or compound activity that could not be fit to an IC50 curve | SMYD2 IC50 [33]: no inhibition or compound activity that could not be fit to an IC50 curve | SUV39H1 IC50 [34]: no inhibition or compound activity that could not be fit to an IC50 curve | SUV39H2 IC50 [35]: no inhibition or compound activity that could not be fit to an IC50 curve | SUV420H1TV2 IC50 [36]: no inhibition or compound activity that could not be fit to an IC50 curve | PRMT6 IC50 [37]: no inhibition or compound activity that could not be fit to an IC50 curve | antitumor efficacy (in words) [38]: efficacious | antitumor efficacy (in words) ([38]; listed as CPI-1205): robust antitumor effects | time to observed tumor regression ([38]; 160 mg/kg po BID, female CB-17 SCID mice): ≤ 2 weeks
